Assay results reported in ChEMBL document CHEMBL1153501, “3,4-Disubstituted benzofuran P1' MMP-13 inhibitors: optimization of selectivity and reduction of protein binding” (Bioorg Med Chem Lett, 2009).
pIC50: −log10 of the molar value.

What was measured:
[1] = Selectivity ratio of IC50 for MMP2 to IC50 for MMP13
Collagenase 3 = Collagenase 3 (Homo sapiens, UniProt P45452); assay: Inhibition of MMP13
[2] = target: 72 kDa type IV collagenase (Homo sapiens, UniProt P08253); assay: Inhibition of MMP2
72 kDa type IV collagenase, sequence (P08253 whole entry): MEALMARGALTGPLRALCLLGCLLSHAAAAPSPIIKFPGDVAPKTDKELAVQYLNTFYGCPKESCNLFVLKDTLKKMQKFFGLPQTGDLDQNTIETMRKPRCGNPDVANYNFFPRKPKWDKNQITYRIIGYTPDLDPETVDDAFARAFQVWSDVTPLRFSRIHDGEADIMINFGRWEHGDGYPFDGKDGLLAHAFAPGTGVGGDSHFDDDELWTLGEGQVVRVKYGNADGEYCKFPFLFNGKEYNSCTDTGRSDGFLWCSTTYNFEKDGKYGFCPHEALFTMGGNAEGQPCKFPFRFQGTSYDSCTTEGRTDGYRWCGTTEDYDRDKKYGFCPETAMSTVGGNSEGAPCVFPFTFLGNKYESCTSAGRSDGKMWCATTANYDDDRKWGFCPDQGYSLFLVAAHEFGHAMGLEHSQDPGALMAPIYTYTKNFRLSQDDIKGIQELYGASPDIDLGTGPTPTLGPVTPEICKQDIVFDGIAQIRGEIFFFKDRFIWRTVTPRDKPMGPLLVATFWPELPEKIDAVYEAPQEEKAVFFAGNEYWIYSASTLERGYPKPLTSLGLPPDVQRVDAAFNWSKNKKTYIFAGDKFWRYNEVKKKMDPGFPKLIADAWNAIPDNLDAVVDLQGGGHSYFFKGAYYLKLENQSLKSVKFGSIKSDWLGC

albumin = albumin (Oryctolagus cuniculus, UniProt P49065); assay: Protein binding in rabbit serum albumin by equilibrium dialysis assay; format: ADME; settings: read-out: PB
albumin, sequence (P49065 whole entry): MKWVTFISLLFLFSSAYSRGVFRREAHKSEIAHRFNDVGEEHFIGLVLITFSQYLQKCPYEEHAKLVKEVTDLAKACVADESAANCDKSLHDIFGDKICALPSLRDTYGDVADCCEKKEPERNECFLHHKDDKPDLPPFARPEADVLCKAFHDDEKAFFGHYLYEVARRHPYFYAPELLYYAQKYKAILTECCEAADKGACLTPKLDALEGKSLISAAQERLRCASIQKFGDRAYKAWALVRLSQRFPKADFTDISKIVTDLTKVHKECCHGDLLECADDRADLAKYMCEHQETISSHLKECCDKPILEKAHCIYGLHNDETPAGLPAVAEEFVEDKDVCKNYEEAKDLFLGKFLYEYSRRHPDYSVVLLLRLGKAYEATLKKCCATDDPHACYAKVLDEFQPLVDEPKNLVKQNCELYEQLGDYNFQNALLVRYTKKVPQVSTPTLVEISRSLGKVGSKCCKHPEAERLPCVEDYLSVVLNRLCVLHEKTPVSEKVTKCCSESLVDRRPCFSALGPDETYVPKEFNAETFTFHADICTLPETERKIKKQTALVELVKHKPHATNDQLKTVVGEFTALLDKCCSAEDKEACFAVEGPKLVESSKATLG

[3] = target: Matrix metalloproteinase-9 (Homo sapiens, UniProt P14780); assay: Inhibition of MMP9
Matrix metalloproteinase-9, sequence (P14780 whole entry): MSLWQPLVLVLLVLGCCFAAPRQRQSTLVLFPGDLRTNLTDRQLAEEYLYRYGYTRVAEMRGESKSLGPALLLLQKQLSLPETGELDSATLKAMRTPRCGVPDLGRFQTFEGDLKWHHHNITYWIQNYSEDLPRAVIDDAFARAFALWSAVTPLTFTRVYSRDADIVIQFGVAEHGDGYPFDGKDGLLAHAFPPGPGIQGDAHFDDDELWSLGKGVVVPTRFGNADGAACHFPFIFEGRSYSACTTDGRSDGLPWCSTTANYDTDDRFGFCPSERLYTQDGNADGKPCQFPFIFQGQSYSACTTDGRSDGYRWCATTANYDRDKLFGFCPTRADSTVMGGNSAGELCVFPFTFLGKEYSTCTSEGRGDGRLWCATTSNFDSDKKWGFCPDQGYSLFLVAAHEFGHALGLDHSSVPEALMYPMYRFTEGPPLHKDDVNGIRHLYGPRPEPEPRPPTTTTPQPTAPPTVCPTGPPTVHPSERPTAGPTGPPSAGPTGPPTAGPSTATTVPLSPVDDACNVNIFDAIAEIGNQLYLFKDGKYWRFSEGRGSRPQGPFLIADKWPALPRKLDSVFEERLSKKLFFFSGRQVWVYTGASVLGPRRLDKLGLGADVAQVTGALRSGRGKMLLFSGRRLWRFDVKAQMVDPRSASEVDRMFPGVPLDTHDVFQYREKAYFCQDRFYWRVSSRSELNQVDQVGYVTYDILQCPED

[4] = target: Collagenase 3 (Bos taurus) (UniProt O77656); assay: Inhibition of IL1-stimulated MMP13-mediated bovine articular cartilage collagen degradation assessed as hydroxyproline content at 0.1 uM after 17 days
[5] = target: Collagenase 3 (Bos taurus) (UniProt O77656); assay: Inhibition of IL1-stimulated MMP13-mediated bovine articular cartilage collagen degradation assessed as hydroxyproline content at 0.01 uM after 17 days
[6] = target: Collagenase 3 (Bos taurus) (UniProt O77656); assay: Inhibition of IL1-stimulated MMP13-mediated bovine articular cartilage collagen degradation assessed as hydroxyproline content at 1 uM after 17 days
Interstitial collagenase = Interstitial collagenase (Homo sapiens, UniProt P03956); assay: Inhibition of MMP1
Interstitial collagenase, sequence (P03956 whole entry, looked up): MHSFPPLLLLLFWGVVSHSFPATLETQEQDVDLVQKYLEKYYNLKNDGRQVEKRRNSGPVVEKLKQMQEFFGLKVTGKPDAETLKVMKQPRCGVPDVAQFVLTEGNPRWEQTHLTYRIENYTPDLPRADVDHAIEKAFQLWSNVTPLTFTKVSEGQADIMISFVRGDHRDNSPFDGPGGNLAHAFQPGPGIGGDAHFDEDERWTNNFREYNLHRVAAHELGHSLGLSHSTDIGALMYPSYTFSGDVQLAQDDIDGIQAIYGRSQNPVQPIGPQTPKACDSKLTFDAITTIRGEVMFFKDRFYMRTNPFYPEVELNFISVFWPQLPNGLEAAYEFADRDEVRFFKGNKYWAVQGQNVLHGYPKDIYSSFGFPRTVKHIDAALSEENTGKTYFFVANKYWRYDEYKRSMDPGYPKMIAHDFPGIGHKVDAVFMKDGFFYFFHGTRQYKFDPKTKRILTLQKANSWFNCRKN

[7] = target: Matrix metalloproteinase-14 (Homo sapiens, UniProt P50281); assay: Inhibition of MMP14
[8] = target: T1, A disintegrin and metalloproteinase with thrombospondin motifs 4 (Homo sapiens, UniProt O75173); assay: Inhibition of aggrecanase-1
T1 sequence (O75173 whole entry): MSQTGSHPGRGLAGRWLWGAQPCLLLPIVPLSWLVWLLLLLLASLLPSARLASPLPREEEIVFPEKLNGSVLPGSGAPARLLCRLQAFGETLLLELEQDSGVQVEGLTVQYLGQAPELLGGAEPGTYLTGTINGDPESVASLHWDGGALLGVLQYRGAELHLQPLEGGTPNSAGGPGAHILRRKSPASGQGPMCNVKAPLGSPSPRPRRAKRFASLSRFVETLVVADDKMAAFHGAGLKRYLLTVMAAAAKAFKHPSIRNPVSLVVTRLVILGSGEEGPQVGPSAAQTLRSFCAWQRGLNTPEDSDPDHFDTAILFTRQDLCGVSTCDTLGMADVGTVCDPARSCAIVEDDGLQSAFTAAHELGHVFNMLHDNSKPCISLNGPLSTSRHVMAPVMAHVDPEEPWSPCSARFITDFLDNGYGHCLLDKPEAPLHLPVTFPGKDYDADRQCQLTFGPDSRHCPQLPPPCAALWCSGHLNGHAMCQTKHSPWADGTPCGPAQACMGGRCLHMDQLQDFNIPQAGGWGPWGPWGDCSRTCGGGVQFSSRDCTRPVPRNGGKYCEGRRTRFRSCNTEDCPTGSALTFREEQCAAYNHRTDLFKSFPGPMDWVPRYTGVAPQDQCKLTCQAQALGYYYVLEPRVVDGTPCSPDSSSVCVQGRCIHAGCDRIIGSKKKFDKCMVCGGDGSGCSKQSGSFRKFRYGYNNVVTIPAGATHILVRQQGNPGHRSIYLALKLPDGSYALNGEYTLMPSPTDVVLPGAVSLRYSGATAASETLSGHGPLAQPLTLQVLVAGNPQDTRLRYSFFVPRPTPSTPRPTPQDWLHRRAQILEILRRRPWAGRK

SMILES | Ratio IC50 [1] | further results
Cc1c(C(=O)Nc2ccc(-c3ccc(S(=O)(=O)N[C@H](C(=O)O)C(C)C)cc3)cc2)oc2cccc(-c3ccccc3)c12 | 243 | –
Cc1c(C(=O)Nc2ccc(-c3ccc(S(=O)(=O)N[C@H](C(=O)O)C(C)C)cc3)nc2)oc2cccc(NS(C)(=O)=O)c12 | 188 | pIC50 (Collagenase 3): 7.40; pIC50 [2]: 5.12
Cc1c(C(=O)Nc2ccc(-c3ccc(S(=O)(=O)N[C@H](C(=O)O)C(C)C)cc3)cc2)oc2cccc(-c3ccoc3)c12 | 322 | –
Cc1c(C(=O)Nc2ccc(-c3ccc(S(=O)(=O)N[C@H](C(=O)O)C(C)C)cc3)cc2)oc2cccc(Oc3ccccc3)c12 | 263 | –
Cc1c(C(=O)Nc2ccc(-c3ccc(S(=O)(=O)N[C@H](C(=O)O)C(C)C)cc3)cc2)oc2cccc(N3CCOCC3)c12 | 51 | –
COc1c(Br)ccc2oc(C(=O)Nc3ccc(-c4ccc(S(=O)(=O)N[C@H](C(=O)O)C(C)C)cc4)cc3)c(C)c12 | 739 | fraction unbound (albumin): < 0.01
C#Cc1cccc2oc(C(=O)Nc3ccc(-c4ccc(S(=O)(=O)N[C@H](C(=O)O)C(C)C)cc4)cc3)c(C)c12 | 98 | –
Cc1c(C(=O)Nc2ccc(-c3ccc(S(=O)(=O)N[C@H](C(=O)O)C(C)C)cc3)cc2)oc2cccc(NS(C)(=O)=O)c12 | 165 | pIC50 (Interstitial collagenase): 4.92; pIC50 [7]: 4.95; pIC50 [3]: < 5.00; inhibition [4]: 69%; inhibition [5]: 51%; inhibition [6]: 96%; pIC50 (Collagenase 3): 7.89; pIC50 [8]: 5.66; pIC50 [2]: 5.67
COc1cccc2oc(C(=O)Nc3ccc(-c4ccc(S(=O)(=O)N[C@H](C(=O)O)C(C)C)cc4)cc3)c(C)c12 | 110 | –
Cc1c(C(=O)Nc2ccc(-c3ccc(S(=O)(=O)N[C@H](C(=O)O)C(C)C)cc3)cc2)oc2cccc(N)c12 | 75 | –

Second part, led by results:

Ratio IC50 [1] | SMILES | further results
287 | Cc1cccc2oc(C(=O)Nc3ccc(-c4ccc(S(=O)(=O)N[C@H](C(=O)O)C(C)C)cc4)cc3)c(C)c12 | –
248 | COC(=O)C(C)(C)Oc1cccc2oc(C(=O)Nc3ccc(-c4ccc(S(=O)(=O)N[C@H](C(=O)O)C(C)C)cc4)cc3)c(C)c12 | –
152 | CC(=O)Nc1cccc2oc(C(=O)Nc3ccc(-c4ccc(S(=O)(=O)N[C@H](C(=O)O)C(C)C)cc4)cc3)c(C)c12 | –
621 | Cc1c(C(=O)Nc2ccc(-c3ccc(S(=O)(=O)N[C@H](C(=O)O)C(C)C)cc3)cc2)oc2cccc(CCCO)c12 | –
1580 | CC#Cc1cccc2oc(C(=O)Nc3ccc(-c4ccc(S(=O)(=O)N[C@H](C(=O)O)C(C)C)cc4)cc3)c(C)c12 | –
786 | Cc1c(C(=O)Nc2ccc(-c3ccc(S(=O)(=O)N[C@H](C(=O)O)C(C)C)cc3)cc2)oc2cccc(N(C)C)c12 | –
157 | Cc1c(C(=O)Nc2ccc(-c3ccc(S(=O)(=O)N[C@H](C(=O)O)C(C)C)cc3)cc2)oc2cccc(C#N)c12 | pIC50 [3]: < 5.00; inhibition [4]: 87%; inhibition [5]: 23%; inhibition [6]: 100%
108 | CNc1cccc2oc(C(=O)Nc3ccc(-c4ccc(S(=O)(=O)N[C@H](C(=O)O)C(C)C)cc4)cc3)c(C)c12 | –
364 | COCCCc1cccc2oc(C(=O)Nc3ccc(-c4ccc(S(=O)(=O)N[C@H](C(=O)O)C(C)C)cc4)cc3)c(C)c12 | –
613 | CCc1cccc2oc(C(=O)Nc3ccc(-c4ccc(S(=O)(=O)N[C@H](C(=O)O)C(C)C)cc4)cc3)c(C)c12 | –
485 | CCOc1cccc2oc(C(=O)Nc3ccc(-c4ccc(S(=O)(=O)N[C@H](C(=O)O)C(C)C)cc4)cc3)c(C)c12 | –
63 | Cc1c(C(=O)Nc2ccc(-c3ccc(S(=O)(=O)N[C@H](C(=O)O)C(C)C)cc3)cc2)oc2cccc(O)c12 | –
